Test results reported in ChEMBL document CHEMBL2390840, “An analysis of the synthetic tryptamines AMT and 5-MeO-DALT: emerging 'Novel Psychoactive Drugs'” (Bioorg Med Chem Lett, 2013).

Tests used:
[1] = biological target: T1, 5-hydroxytryptamine receptor 2A (Homo sapiens, UniProt P28223); test: Displacement of [3H]Ketanserin from human recombinant 5-HT2A receptor expressed in HEK293T cells after 1 to […] by scintillation counting analysis; format: cell-based, HEK-293T
[2] = biological target: T1, 5-hydroxytryptamine receptor 2A; test: Agonist activity at human 5-HT2A receptor expressed in HEK293 cells assessed as increase in calcium mobilization by FLIPR assay; format: functional, cell-based
[3] = biological target: Neuronal acetylcholine receptor; alpha3/beta2 (Homo sapiens, UniProt P17787+P32297); test: Displacement of [3H]Epibatidine from human recombinant alpha3beta2 nACh receptor expressed in HEK293 cells after 1 to […] by scintillation counting analysis; format: cell-based
Sequence of Neuronal acetylcholine receptor; alpha3/beta2 (P17787 whole entry): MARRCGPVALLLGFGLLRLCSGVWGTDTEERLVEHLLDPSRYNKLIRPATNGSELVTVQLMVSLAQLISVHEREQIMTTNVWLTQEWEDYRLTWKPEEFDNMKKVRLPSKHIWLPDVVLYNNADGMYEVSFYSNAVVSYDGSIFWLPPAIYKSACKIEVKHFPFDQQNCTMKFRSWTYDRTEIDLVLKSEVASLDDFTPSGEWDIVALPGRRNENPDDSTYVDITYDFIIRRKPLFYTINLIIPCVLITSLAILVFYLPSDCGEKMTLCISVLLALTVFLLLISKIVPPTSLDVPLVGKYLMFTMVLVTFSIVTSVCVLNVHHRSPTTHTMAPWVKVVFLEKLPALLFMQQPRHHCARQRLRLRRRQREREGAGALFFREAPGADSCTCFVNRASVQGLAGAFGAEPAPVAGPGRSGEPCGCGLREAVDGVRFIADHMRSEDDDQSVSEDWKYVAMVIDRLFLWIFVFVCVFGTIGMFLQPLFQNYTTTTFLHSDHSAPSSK
Sequence of Neuronal acetylcholine receptor; alpha3/beta2 (P32297 whole entry): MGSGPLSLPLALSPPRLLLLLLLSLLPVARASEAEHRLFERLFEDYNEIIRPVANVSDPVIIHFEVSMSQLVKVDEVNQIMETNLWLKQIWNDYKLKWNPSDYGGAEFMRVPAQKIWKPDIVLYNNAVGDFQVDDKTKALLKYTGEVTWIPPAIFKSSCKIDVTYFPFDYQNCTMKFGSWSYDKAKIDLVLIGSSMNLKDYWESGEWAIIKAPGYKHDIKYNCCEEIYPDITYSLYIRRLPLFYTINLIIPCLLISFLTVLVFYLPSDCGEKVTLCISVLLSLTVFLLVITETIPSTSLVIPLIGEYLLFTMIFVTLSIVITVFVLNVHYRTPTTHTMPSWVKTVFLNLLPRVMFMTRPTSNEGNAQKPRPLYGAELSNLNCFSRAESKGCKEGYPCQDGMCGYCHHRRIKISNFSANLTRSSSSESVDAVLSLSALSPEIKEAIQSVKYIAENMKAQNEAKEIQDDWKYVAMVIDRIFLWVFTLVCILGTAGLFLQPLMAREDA

[4] = biological target: 5-hydroxytryptamine receptor 1B (Homo sapiens, UniProt P28222); test: Displacement of [3H][…] from human recombinant 5-HT1B receptor expressed in HEK293 cells after 1 to […] by scintillation counting analysis; format: cell-based
[5] = biological target: T2, Sodium-dependent noradrenaline transporter (Homo sapiens, UniProt P23975); test: Inhibition of [3H]norepinephrine uptake at human NET expressed in HEK293 cells preincubated for 10 mins prior to substrate addition measured after 4 mins by […]; format: cell-based
T2 sequence (P23975 whole entry): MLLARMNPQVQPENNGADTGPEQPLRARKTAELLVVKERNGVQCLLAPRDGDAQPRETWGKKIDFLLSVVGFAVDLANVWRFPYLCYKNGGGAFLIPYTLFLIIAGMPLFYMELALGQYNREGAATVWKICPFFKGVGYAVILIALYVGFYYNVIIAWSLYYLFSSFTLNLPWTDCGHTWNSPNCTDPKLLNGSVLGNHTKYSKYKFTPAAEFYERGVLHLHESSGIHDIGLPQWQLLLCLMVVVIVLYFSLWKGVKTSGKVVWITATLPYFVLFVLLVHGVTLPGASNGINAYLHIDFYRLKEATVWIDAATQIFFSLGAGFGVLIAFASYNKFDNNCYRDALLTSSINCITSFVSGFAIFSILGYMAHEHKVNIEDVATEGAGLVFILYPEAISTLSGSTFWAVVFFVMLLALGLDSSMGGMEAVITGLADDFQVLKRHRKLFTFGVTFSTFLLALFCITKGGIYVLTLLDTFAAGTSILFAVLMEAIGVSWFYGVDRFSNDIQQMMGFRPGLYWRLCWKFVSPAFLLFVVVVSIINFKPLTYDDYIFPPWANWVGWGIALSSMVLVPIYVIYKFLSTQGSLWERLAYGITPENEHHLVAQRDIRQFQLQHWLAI

[6] = Displacement of [3H]DTG from sigma 2 receptor in rat PC12 cells after 1 to […] by scintillation counting analysis; format: cell-based; conditions: pc-12
[7] = biological target: T2, Sodium-dependent noradrenaline transporter; test: Displacement of [3H]Nisoxetine from human recombinant norepinephrine transporter expressed in HEK293 cells after 1 to […] by scintillation counting analysis; format: cell-based
[8] = biological target: D(3) dopamine receptor (Homo sapiens, UniProt P35462); test: Displacement of [3H]N-methylspiperone from human recombinant dopamine D3 receptor expressed in HEK293 cells after 1 to […] by scintillation counting analysis; format: cell-based
Sequence of D(3) dopamine receptor (P35462 whole entry): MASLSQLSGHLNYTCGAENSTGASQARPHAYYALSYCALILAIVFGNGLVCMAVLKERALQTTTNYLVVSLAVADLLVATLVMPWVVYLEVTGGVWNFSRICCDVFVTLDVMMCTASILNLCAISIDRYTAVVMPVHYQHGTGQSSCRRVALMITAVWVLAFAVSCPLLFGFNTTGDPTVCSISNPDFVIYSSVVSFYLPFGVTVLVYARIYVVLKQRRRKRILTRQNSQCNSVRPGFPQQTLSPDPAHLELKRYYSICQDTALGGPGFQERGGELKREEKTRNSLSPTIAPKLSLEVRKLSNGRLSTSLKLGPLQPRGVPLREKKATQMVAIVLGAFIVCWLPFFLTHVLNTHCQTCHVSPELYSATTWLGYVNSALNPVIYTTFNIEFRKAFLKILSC

[9] = biological target: D(2) dopamine receptor (Homo sapiens, UniProt P14416); test: Displacement of [3H]N-methylspiperone from human recombinant dopamine D2 receptor expressed in HEK293 cells after 1 to […] by scintillation counting analysis; format: cell-based
Sequence of D(2) dopamine receptor (P14416 whole entry): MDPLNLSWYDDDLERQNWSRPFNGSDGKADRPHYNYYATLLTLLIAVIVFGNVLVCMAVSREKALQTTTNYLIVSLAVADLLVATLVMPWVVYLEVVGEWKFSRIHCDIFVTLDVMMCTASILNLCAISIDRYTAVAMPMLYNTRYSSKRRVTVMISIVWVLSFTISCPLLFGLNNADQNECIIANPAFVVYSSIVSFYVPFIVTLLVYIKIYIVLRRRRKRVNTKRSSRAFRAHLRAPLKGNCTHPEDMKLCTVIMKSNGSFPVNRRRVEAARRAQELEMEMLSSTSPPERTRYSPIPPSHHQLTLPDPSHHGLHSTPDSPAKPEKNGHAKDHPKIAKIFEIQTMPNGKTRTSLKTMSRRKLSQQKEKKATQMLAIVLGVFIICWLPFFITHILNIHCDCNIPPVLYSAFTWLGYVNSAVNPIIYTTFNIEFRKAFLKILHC

[10] = biological target: Alpha-2C adrenergic receptor (Homo sapiens, UniProt P18825); test: Displacement of [3H]Clonidine from human recombinant adrenergic alpha2C receptor expressed in MDCK cells after 1 to […] by scintillation counting analysis; format: cell-based
Sequence of Alpha-2C adrenergic receptor (P18825 whole entry): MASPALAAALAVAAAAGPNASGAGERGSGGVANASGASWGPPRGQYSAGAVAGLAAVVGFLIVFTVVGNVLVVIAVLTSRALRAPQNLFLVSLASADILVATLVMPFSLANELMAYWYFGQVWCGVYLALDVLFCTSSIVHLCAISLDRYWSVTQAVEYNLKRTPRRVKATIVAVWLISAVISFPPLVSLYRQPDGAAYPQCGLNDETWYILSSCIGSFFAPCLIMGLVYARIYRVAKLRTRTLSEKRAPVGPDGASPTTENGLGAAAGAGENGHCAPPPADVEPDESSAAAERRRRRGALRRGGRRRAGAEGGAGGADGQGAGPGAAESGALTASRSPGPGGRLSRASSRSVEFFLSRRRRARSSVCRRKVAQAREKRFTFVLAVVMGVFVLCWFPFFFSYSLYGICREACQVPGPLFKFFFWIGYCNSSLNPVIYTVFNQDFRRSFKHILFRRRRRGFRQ

[11] = biological target: Alpha-2B adrenergic receptor (Homo sapiens, UniProt P18089); test: Displacement of [3H]Clonidine from human recombinant adrenergic alpha2B receptor expressed in HEK293T cells after 1 to […] by scintillation counting analysis; format: cell-based, HEK-293T
Sequence of Alpha-2B adrenergic receptor (P18089 whole entry): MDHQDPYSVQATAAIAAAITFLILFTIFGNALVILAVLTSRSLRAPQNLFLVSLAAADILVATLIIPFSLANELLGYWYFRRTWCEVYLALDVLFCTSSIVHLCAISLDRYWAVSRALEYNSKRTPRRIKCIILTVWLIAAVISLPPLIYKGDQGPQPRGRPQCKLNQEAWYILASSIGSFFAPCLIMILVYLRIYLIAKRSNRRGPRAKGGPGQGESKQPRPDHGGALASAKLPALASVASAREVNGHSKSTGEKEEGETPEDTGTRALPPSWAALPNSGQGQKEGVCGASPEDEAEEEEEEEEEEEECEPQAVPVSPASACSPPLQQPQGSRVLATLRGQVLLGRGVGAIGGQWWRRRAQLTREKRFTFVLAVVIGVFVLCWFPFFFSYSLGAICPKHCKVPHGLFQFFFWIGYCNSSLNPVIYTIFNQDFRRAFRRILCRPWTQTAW

[12] = biological target: Alpha-1B adrenergic receptor (Homo sapiens, UniProt P35368); test: Displacement of [3H]Prazosin from human recombinant adrenergic alpha1B receptor expressed in HEK293 cells after 1 to […] by scintillation counting analysis; format: cell-based
Sequence of Alpha-1B adrenergic receptor (P35368 whole entry): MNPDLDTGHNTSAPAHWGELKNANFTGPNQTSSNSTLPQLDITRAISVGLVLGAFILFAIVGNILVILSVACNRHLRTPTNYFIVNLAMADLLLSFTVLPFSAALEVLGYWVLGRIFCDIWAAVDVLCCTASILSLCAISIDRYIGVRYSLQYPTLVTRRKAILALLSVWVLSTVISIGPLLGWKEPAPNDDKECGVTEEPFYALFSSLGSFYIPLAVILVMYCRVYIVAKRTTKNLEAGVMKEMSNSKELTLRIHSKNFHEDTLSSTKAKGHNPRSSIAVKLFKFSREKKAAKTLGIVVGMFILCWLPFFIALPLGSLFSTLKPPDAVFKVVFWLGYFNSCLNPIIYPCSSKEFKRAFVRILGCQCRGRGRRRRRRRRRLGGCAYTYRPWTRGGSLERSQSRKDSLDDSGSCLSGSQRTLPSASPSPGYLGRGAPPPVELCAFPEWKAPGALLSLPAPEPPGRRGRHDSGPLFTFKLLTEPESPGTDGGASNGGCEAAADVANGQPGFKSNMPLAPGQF

[13] = biological target: Alpha-1A adrenergic receptor (Homo sapiens, UniProt P35348); test: Displacement of [3H]Prazosin from human recombinant adrenergic alpha1A receptor expressed in HEK293 cells after 1 to […] by scintillation counting analysis; format: cell-based
Sequence of Alpha-1A adrenergic receptor (P35348 whole entry): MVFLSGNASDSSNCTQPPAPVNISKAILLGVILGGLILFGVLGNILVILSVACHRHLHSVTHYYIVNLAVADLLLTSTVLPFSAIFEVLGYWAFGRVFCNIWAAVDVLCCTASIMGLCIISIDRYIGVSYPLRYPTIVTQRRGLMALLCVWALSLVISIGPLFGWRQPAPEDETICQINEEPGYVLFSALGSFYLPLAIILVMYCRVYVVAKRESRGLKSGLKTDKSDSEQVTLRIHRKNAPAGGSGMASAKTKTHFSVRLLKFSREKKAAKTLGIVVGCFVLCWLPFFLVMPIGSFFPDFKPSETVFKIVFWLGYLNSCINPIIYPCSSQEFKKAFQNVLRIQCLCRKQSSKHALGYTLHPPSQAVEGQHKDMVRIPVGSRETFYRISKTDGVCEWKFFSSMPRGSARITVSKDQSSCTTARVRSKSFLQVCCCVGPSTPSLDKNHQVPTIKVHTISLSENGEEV

T1 sequence (P28223 whole entry): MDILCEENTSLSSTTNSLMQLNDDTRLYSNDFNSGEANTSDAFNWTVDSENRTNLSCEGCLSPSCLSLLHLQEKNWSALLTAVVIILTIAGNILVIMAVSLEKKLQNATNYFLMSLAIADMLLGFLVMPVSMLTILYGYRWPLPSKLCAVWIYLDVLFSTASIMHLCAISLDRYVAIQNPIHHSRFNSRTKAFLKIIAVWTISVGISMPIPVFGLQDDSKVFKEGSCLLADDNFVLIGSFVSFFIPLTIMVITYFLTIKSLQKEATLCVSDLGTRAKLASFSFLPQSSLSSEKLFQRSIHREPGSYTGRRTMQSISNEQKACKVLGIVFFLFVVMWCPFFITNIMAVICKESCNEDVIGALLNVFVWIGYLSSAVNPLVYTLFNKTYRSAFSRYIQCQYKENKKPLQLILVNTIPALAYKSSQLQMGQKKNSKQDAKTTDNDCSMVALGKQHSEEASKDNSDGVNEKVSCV

| SMILES | Ki [1] [µM] | EC50 ([2]; read-out: EC50) [µM] | EC50 ([2]; read-out: pEC50 (converted)) [µM] | Ki [3] [µM] | Ki [4] [µM] | IC50 [5] [µM] | Ki [5] [µM] | pKi [6] | Ki [7] [µM] | Ki [8] [µM] | Ki [9] [µM] | Ki [10] [µM] | Ki [11] [µM] | Ki [12] [µM] | Ki [13] [µM] |
| --- | --- | --- | --- | --- | --- | --- | --- | --- | --- | --- | --- | --- | --- | --- | --- |
| C=CCN(CC=C)CCc1c[nH]c2ccc(OC)cc12 | 0.555 | 0.0028 | 0.0275 | > 10 | – | – | – | – | – | – | – | – | – | – | – |
| CC(N)Cc1c[nH]c2ccccc12 (stereo unspecified) | – | – | – | > 10 | 0.559 | 3.72 | 0.642 | < 5 | > 10 | > 10 | > 10 | > 10 | > 10 | > 10 | > 10 |
